Measured values as given in ChEMBL document CHEMBL1201862, “PubChem BioAssay data set” (2004).
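48-hour exposure; five concentrations; linearly interpolated endpoints. GI50: concentration for 50% inhibition of growth.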 Active and inactive are the calls of the source. Rule as the data show it: active = GI50 up to about 1.1 µM and inactive = higher.

Experiments:
Experiment in all cases: DTP human tumour cell line panel, 48 h
786-0 = test system: 786-0
HCT-15 = test system: HCT-15
OVCAR-4 = test system: OVCAR-4
NCI-H522 = test system: NCI-H522
SF-268 = test system: SF-268
OVCAR-8 = test system: OVCAR-8
SNB-19 = test system: SNB-19
SK-MEL-2 = test system: SK-MEL-2
RPMI-8226 = test system: RPMI-8226
SN12C = test system: SN12C
MOLT-4 = test system: MOLT-4
SF-539 = test system: SF-539
NCI/ADR-RES = test system: NCI/ADR-RES
IGROV-1 = test system: IGROV-1
HOP-92 = test system: HOP-92
SR = test system: SR
A549 = test system: A549
NCI-H226 = test system: NCI-H226
COLO 205 = test system: COLO 205
UACC-257 = test system: UACC-257
PC-3 = test system: PC-3
HT-29 = test system: HT-29
NCI-H460 = test system: NCI-H460
SK-MEL-28 = test system: SK-MEL-28
T47D = test system: T47D
OVCAR-5 = test system: OVCAR-5
RXF 393 = test system: RXF 393
EKVX = test system: EKVX
HCT-116 = test system: HCT-116
BT-549 = test system: BT-549
UO-31 = test system: UO-31
Hs-578T = test system: Hs-578T
SK-MEL-5 = test system: SK-MEL-5
HOP-62 = test system: HOP-62
ACHN = test system: ACHN
MDA-MB-231 = test system: MDA-MB-231
DU-145 = test system: DU-145
MCF7 = test system: MCF7
K562 = test system: K562
TK-10 = test system: TK-10
SK-OV-3 = test system: SK-OV-3
A498 = test system: A498
Malme-3M = test system: Malme-3M
U-251 = test system: U-251
NCI-H23 = test system: NCI-H23
HL-60 = test system: HL-60
HCC 2998 = test system: HCC 2998
CCRF-CEM = test system: CCRF-CEM
OVCAR-3 = test system: OVCAR-3
KM12 = test system: KM12
MDA-MB-435 = test system: MDA-MB-435
SF-295 = test system: SF-295
CAKI-1 = test system: CAKI-1
M14 = test system: M14
UACC-62 = test system: UACC-62
SW-620 = test system: SW-620
SNB-75 = test system: SNB-75
LOX IMVI = test system: LOX IMVI

Measured: GI50

O=C(Nc1ccc(Cl)cc1)c1cc(S(=O)(=O)Nc2nnc3c(Cl)cc(C(F)(F)F)cn23)c(S)cc1Cl
inactive: 786-0 > 100 µM | OVCAR-4 > 100 µM | NCI-H522 80 µM | SF-268 70 µM | OVCAR-8 > 100 µM | SNB-19 52.2 µM | SK-MEL-2 15 µM | RPMI-8226 > 100 µM | SN12C 84.5 µM | MOLT-4 66.8 µM | SF-539 > 100 µM | NCI/ADR-RES > 100 µM | IGROV-1 > 100 µM | HOP-92 > 100 µM | SR 29.6 µM | A549 > 100 µM | NCI-H226 > 100 µM | COLO 205 > 100 µM | UACC-257 > 100 µM | PC-3 83 µM | HT-29 51.9 µM | NCI-H460 43.1 µM | SK-MEL-28 > 100 µM | T47D > 100 µM | OVCAR-5 > 100 µM | RXF 393 > 100 µM | EKVX > 100 µM | HCT-116 68.1 µM | BT-549 > 100 µM | UO-31 > 100 µM | Hs-578T 46.5 µM | SK-MEL-5 96.4 µM | HOP-62 54.5 µM | ACHN > 100 µM | MDA-MB-231 33.8 µM | DU-145 > 100 µM | MCF7 > 100 µM | K562 > 100 µM | TK-10 > 100 µM | SK-OV-3 41.9 µM | A498 28.7 µM | Malme-3M > 100 µM | U-251 56.5 µM | NCI-H23 59.7 µM | HL-60 > 100 µM | HCC 2998 > 100 µM | CCRF-CEM > 100 µM | OVCAR-3 > 100 µM | KM12 50.4 µM | MDA-MB-435 49.9 µM | SF-295 44.6 µM | CAKI-1 > 100 µM | M14 > 100 µM
> 100 µM: HCT-15

CCCc1cn2c(/C=N/NC(=N)N)c(-c3ccc([N+](=O)[O-])cc3)nc2s1
active: 786-0 0.853 µM | OVCAR-4 1.06 µM | RPMI-8226 0.45 µM | MOLT-4 0.231 µM | SR 0.245 µM | COLO 205 0.891 µM | HT-29 0.275 µM | SW-620 0.342 µM | HCT-116 0.377 µM | K562 0.286 µM | U-251 0.769 µM | HL-60 0.45 µM | HCC 2998 0.578 µM | CCRF-CEM 0.277 µM | OVCAR-3 0.548 µM | SF-295 0.912 µM
1.36 µM: HCT-15
inactive: NCI-H522 2.08 µM | SF-268 2.16 µM | OVCAR-8 1.9 µM | SNB-19 1.71 µM | SK-MEL-2 2.13 µM | SN12C 1.58 µM | SF-539 4.88 µM | NCI/ADR-RES 1.89 µM | IGROV-1 1.77 µM | HOP-92 6.01 µM | A549 1.71 µM | NCI-H226 2 µM | UACC-257 1.73 µM | PC-3 2.01 µM | UACC-62 1.82 µM | NCI-H460 1.93 µM | SK-MEL-28 1.85 µM | T47D 1.67 µM | OVCAR-5 1.71 µM | SNB-75 1.8 µM | RXF 393 1.73 µM | EKVX 1.95 µM | BT-549 1.92 µM | UO-31 1.91 µM | Hs-578T 2.33 µM | SK-MEL-5 5.81 µM | HOP-62 1.77 µM | ACHN 1.67 µM | MDA-MB-231 1.69 µM | DU-145 1.77 µM | MCF7 1.75 µM | TK-10 1.81 µM | SK-OV-3 1.79 µM | A498 5.26 µM | Malme-3M 2.5 µM | LOX IMVI 1.39 µM | NCI-H23 1.61 µM | KM12 1.52 µM | MDA-MB-435 1.63 µM | CAKI-1 1.69 µM | M14 1.93 µM
